Results on 6 molecules are retold here after publication PMC3885546, “Structural Determinants of the 5′-Methylthioinosine Specificity of Plasmodium Purine Nucleoside Phosphorylase” (PLoS ONE, 2014).

In general, Ki refers to a dissociation constant, usually derived from enzyme kinetics or from competition with a known ligand. As a reminder, the Km is the concentration of substrate that gives half-maximal velocity. What is called kcat is the number of substrate molecules converted per active site and unit of time at saturation. The kcat/Km is the turnover number divided by the Michaelis constant. A word on the stoichiometry N: it is the number of molecules, sites or subunits per partner or assembly.

The test system of data set [1] is TgPNPWT. Put plainly: Inhibition by immucillins (literature values). The class given is biochemical, Toxoplasma gondii. To be noted: TgPNP versus PfPNP.
For data set [2], the target named is TgPNPWT. To be noted: TgPNP WT, ref Chaudhary, et al. [18], cited from earlier work.
Data set [3] relates to PfPNP versus mammalian PNP. The arrangement: method as in PMID 15576366. To be noted: cited from earlier work.
Data set [4] has as its system P. falciparum. The arrangement: method as in PMID 22096507. To be noted: Aotus model; cited from earlier work.
A further data set deals with T1, Pf Tyr160Phe PNP (Plasmodium falciparum, UniProt Q8T9Z7, Y160F).
T1 construct: made in house; host or cells: Escherichia coli Top 10
T1 sequence (Q8T9Z7 whole entry Y160F): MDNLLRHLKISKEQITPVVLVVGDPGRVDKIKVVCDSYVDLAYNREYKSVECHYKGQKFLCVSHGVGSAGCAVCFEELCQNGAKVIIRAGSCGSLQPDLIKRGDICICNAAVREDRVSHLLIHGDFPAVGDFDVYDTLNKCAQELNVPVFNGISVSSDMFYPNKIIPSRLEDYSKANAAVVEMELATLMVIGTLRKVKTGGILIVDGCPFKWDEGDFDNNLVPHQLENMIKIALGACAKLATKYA
The data set can be described thus: Inhibition by immucillins (initial and slow onset). Type of data set: biochemical. To be noted: initial. The method, then:
(§1) Kinetic assays were completed in 50 mM KH2PO4 at pH 7.4 measuring phosphorylysis of inosine or MTI by PNP in a coupled reaction with 60 milliunits/ml xanthine oxidase to convert hypoxanthine to uric acid. […] Assays were performed with excess substrate in the presence of inhibitors. Inhibition studies measured both initial (Ki) and slow onset inhibition (Ki*) for inhibitors. The initial onset inhibition was analyzed by using the following equation: ν ο = (k cat×S)/(K m(1+I/Ki)+S), ν ο is the steady state rate, k cat catalytic rate, S is substrate concentration, Km is Michealis constant for inosine, I is inhibitor concentration, and Ki is the equilibrium dissociation constant.

In a further data set the target is T2, Pf V66I:V73I PNP (Plasmodium falciparum, UniProt Q8T9Z7, V66I/V73I).
T2 construct: made in house; host or cells: Escherichia coli Top 10
T2 sequence (Q8T9Z7 whole entry V66I/V73I): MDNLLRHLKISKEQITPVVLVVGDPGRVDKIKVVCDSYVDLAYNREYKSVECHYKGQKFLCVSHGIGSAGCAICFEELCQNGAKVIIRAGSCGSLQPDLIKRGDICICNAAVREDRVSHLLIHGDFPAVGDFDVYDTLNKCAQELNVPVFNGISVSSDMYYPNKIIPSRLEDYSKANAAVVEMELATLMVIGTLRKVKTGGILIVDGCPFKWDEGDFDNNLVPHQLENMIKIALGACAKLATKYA
Put plainly: Inhibition by immucillins (initial and slow onset). The class given is biochemical. The note with it: initial. The method, then: as §1

A further data set has as its target T3, Pf V66I:V73I:Y160F PNP (Plasmodium falciparum, UniProt Q8T9Z7, V66I/V73I/Y160F).
T3 construct: made in house; host or cells: Escherichia coli Top 10
Put plainly: Inhibition by immucillins (initial and slow onset). Type of data set: biochemical. To be noted: initial. The method, then: as §1

In another data set the target is T4, Pf Val66Ile PNP (Plasmodium falciparum, UniProt Q8I3X4, V66I).
T4 construct: made in house; host or cells: Escherichia coli Top 10
T4 sequence (Q8I3X4 whole entry V66I): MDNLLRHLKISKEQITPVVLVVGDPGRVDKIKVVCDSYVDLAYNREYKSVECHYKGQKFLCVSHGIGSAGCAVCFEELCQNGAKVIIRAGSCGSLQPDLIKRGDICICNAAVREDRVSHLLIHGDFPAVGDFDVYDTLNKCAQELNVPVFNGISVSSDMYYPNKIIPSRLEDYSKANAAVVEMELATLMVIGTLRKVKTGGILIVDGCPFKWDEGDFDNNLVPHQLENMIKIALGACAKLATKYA
The data set can be described thus: Inhibition by immucillins (initial and slow onset). Type of data set: biochemical. To be noted: slow onset. Here is the method: as §1

The test system of data set [5] is P. falciparum. The note with it: purine-rich environment of cultured red blood cells; cited from earlier work.
Substrate in data set [6]: OC[C@H]1O[C@@H](n2cnc3c(O)ncnc32)[C@H](O)[C@@H]1O
The data set can be described thus: Substrate kinetics, xanthine oxidase coupled phosphorolysis assay. The class given is biochemical, Plasmodium falciparum. To be noted: other: wild type PfPNP, substrate = label, 50 mM KH2PO4 pH 7.4, mean ± SD. The method, then: Kinetic assays were completed in 50 mM KH2PO4 at pH 7.4 measuring phosphorylysis of inosine or MTI by PNP in a coupled reaction with 60 milliunits/ml xanthine oxidase to convert hypoxanthine to uric acid. Formation of uric acid was measured at 293 nm wavelength (E293 = 12.9 mM^−1 cm^−1), [20]. In cases where activity for MTI was low, increased protein concentration (10 µg/ml) was used to check enzyme function. Assays were performed with excess substrate in the presence of inhibitors. Inhibition studies measured both initial (Ki) and slow onset inhibition (Ki*) for inhibitors. The initial onset inhibition was analyzed by using the following equation: ν ο = (k cat×S)/(K m(1+I/Ki)+S), ν ο is the steady state rate, k cat catalytic rate, S is substrate concentration, Km is Michealis constant for inosine, I is inhibitor concentration, and Ki is the equilibrium dissociation constant.

Data set [7] deals with the molecule itself. Put plainly: SEC; Superose 12 gel filtration, 0.1 ml of 1 mg/ml loaded, 20 mM HEPES, 50 mM KCl, 5 mM KH2PO4, 0.1 mM DTT, pH 7.4, 0.5 ml/min; self-association (hexamer).
Data set [8] concerns the molecule itself. The data set can be described thus: crystal structure; V66I:V73I:Y160F PfPNP with ImmH and phosphate, 2.8 Å, space group I4(1)32, 2 molecules in the asymmetric unit; hexamer as a trimer of dimers.

Read-outs that look alike come from different tables or passages of the source. Marks after values point to notes of the source that are not given here.

T3 sequence (Q8T9Z7 whole entry V66I/V73I/Y160F): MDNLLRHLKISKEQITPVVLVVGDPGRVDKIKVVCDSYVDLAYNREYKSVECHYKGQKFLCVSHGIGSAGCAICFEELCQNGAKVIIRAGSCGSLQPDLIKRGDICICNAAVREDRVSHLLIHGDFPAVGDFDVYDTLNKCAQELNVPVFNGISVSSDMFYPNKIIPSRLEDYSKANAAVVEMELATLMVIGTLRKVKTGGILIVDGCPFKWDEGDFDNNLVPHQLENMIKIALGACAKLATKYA

For the molecule `CSC[C@H]1N[C@@H](c2c[nH]c3c(=O)[nH]cnc23)[C@H](O)[C@@H]1O` [MT-ImmH, 5′-methylthioimmucillin-H], in the data set on TgPNPWT [1], the “less effective for TgPNP than for PfPNP (Ki*)” value is “more than 160 fold”. Also, the figures for the Ki on TgPNPWT [2] (initial) and on TgPNPWT [2] (slow onset) were 7100 nM and 290 nM, respectively. The “greater specificity for PfPNP versus mammalian PNP” value in data set [3] is 100 fold.

With `Nc1nc2c(CN3C[C@H](CO)[C@@H](O)C3)c[nH]c2c(=O)[nH]1` [DADMe-Immucillin-G], the “efficacy against P. falciparum” value with P. falciparum [4] is “effective against P. falciparum in the Aotus model”.

Consider `O=c1[nH]cnc2c([C@@H]3N[C@H](CO)[C@@H](O)[C@H]3O)c[nH]c12` [ImmH, Immucillin-H], for which the Ki on Pf Tyr160Phe PNP was 0.93 nM; at Pf V66I:V73I PNP it was 270 nM; at Pf V66I:V73I:Y160F PNP it was 3.6 nM; at TgPNPWT [2] (initial), 450 nM; on TgPNPWT [2] (slow onset), 2 nM. In addition, the “Ki*” value on Pf Val66Ile PNP is reported as “(-) ^c”. Moreover, the “effect on P. falciparum” value with P. falciparum [5] was “causes P. falciparum cell death by purine starvation”.

B1: PfPNP (wild type) (Plasmodium falciparum 3D7) (protein)
chain: MDNLLRHLKISKEQITPVVLVVGDPGRVDKIKVVCDSYVDLAYNREYKSVECHYKGQKFLCVSHGVGSAGCAVCFEELCQNGAKVIIRAGSCGSLQPDLIKRGDICICNAAVREDRVSHLLIHGDFPAVGDFDVYDTLNKCAQELNVPVFNGISVSSDMYYPNKIIPSRLEDYSKANAAVVEMELATLMVIGTLRKVKTGGILIVDGCPFKWDEGDFDNNLVPHQLENMIKIALGACAKLATKYA
notes: made in house; host or cells: Escherichia coli Top 10
Turning to B1, in data set [6], the Km was found to be 11 ± 5 µM, the kcat is 1.7 ± 0.7 s⁻¹ and the kcat/Km worked out at 150000 M⁻¹ s⁻¹.

B2: Plasmodium falciparum purine nucleoside phosphorylase (PfPNP), wild type (enzyme, Plasmodium falciparum (3D7 strain))
chain: DNLLRHLKISKEQITPVVLVVGDPGRVDKIKVVCDSYVDLAYNREYKSVECHYKGQKFLCVSHGVGSAGCAVCFEELCQNGAKVIIRAGSCGSLQPDLIKRGDICICNAAVREDRVSHLLIHGDFPAVGDFDVYDTLNKCAQELNVPVFNGISVSSDMYYPNKIIPSRLEDYSKANAAVVEMELATLMVIGTLRKVKTGGILIVDGCPFKWDEGDFDNNLVPHQLENMIKIALGACAKLATKYA
notes: purine nucleoside phosphorylase of P. falciparum 3D7; also called PfPNP WT; wild-type PfPNP; source: E. coli Top 10, purified (Ni-NTA); not shown: c-Myc, C-terminal, kept; His6, C-terminal, kept
On to B2, for which the “stoichiometry N” value in data set [7] stood at 6.

B3: V66I:V73I:Y160F PfPNP (triple mutant Val66Ile:Val73Ile:Tyr160Phe) (enzyme)
chain: DNLLRHLKISKEQITPVVLVVGDPGRVDKIKVVCDSYVDLAYNREYKSVECHYKGQKFLCVSHGIGSAGCAICFEELCQNGAKVIIRAGSCGSLQPDLIKRGDICICNAAVREDRVSHLLIHGDFPAVGDFDVYDTLNKCAQELNVPVFNGISVSSDMFYPNKIIPSRLEDYSKANAAVVEMELATLMVIGTLRKVKTGGILIVDGCPFKWDEGDFDNNLVPHQLENMIKIALGACAKLATKYA
notes: also called Pf V66I:V73I:Y160F; triple PfPNP mutant; source: E. coli Top 10, purified (Ni-NTA; Superdex 200 for larger scale); not shown: c-Myc, C-terminal, kept; His6, C-terminal, kept
As to B3, in [8], the “stoichiometry N” value was 6.
